Reference: article PMC9817970 (Cancers, 2022)

Key:
c-KIT D816V Ba/F3 cells [1] = experiment: Cell cycle arrest analysis (PI flow cytometry); format: cell-based; conditions: c-KIT D816V Ba/F3, 0.5 μM, 24 h
GIST-T1 cells [2] = experiment: Invasion assay (Transwell); format: cell-based, human; conditions: GIST-T1, 0.05 μM, 48 h
Description: The cell invasion assay was performed using Transwell membrane filter inserts (Corning Costar Corp., Corning, NY, USA). GIST-T1 cells were then suspended in serum-free DMEM at 2 × 10^6 cells and seeded in the upper chambers. In the lower chambers, the DMEM medium containing 10% FBS was added. After 48 h, the cells migrating down the membrane were stained with crystal violet.

c-KIT D816V Ba/F3 cells [3] = experiment: Apoptosis analysis (annexinV/PI flow cytometry); format: cell-based; conditions: c-KIT D816V Ba/F3, 1 μM
Description: (§1) After compound treatment in GIST-T1 and HMC1.2 cells for 24 h, cells were fixed with 70% cold ethanol. Then, cells were incubated with 50 μg propidium iodide/mL solution (PI, Sigma) containing 1 mg RNase A/mL for 30 min in the dark. Cell cycle arrest was analyzed (BD Accuri), and data were processed using BD Accuri^TM C6 software. For apoptosis analysis, compound treatment for 24–48 h, cells were harvested and stained with annexinV and PI solution. 1 × 10^5 cells were analyzed using flow cytometric analysis.

c-KIT = c-KIT (Homo sapiens, UniProt P10721); experiment: Radiometric biochemical kinase assay on c-KIT; design: purchased Reaction Biology Corp. (contract assay service); conditions: read-out: IC50 against c-KIT
Description: (§2) Biochemical kinase assays on c-KIT protein kinase were performed at Reaction Biology Corp. (San Diego, CA, USA). […] The kinase assay followed the manufacturer’s instruction. IC50 values were calculated by GraphPad prism 8.0 software (GraphPad Software, San Diego, CA, USA).
Enzymatic inhibitory activities of all synthesized thiazolo[5,4-b]pyridine derivatives against c-KIT were measured using radiometric biochemical kinase assays (Table 1). We first explored the R1 group of the thiazolo[5,4-b]pyridine scaffold.

[4] = system: c-KIT auto-phosphorylation in c-KIT D816V Ba/F3 cells; experiment: Western blot of c-KIT signaling; format: cell-based; conditions: 10 μM
Description: (§3) Cells were harvested and lysed using RIPA buffer containing 50 mM HEPES (pH 7.4), 1% Triton X-100, 2 mM EDTA, 150 mM NaCl, 2.5 mM NaF, 5 mM Na3VO4, and protease inhibitor cocktail tablet (Roche, # 11–878-580–001). Proteins were separated and transferred to an NC membrane. The membranes were blocked using 5% skim milk in TBS-T buffer. The p-c-KIT (Tyr703, # 3073), p-AKT (Ser473, # 9271), p-ERK (Thr202/Tyr204, # 8544), ERK (# 4695), p-PLCγ (Tyr783, # 14008), p-STAT3 (Tyr705, # 4074), and PARP (# 9542) antibodies were obtained from Cell Signaling Technologies. The β-actin (# sc-47778) and STAT3 (# sc-482) antibodies were obtained from Santa Cruz Biotechnology. AKT (A18120) antibody was purchased from ABclonal. Each primary antibody was incubated overnight at 4 °C. The secondary antibody (GenDEPOT) was incubated for 1 h at room temperature. Proteins were detected using ECL substrate.

GIST-T1 cells [5] = experiment: Apoptosis analysis (annexinV/PI flow cytometry); format: cell-based, human; conditions: GIST-T1, 0.05 μM
Description: as §1

HMC1.2 cells [6] = experiment: Apoptosis analysis (annexinV/PI flow cytometry); format: cell-based, human; conditions: HMC1.2, 1 μM, 48 h
Description: as §1

c-KIT V560G/D816V = molecular target: T1, c-KIT V560G/D816V (Homo sapiens, UniProt P10721, D816V/V560G); experiment: ADP-Glo kinase assay on c-KIT V560G/D816V; format: biochemical; conditions: for IC50: ADP-Glo kinase assay, 10 μM ATP; for fold higher enzymatic inhibitory activity against c-KIT V560G/D816V compared with imatinib: versus imatinib
T1 construct: purchased Promega VA7063
Description: as §2

GIST-T1 cells [7] = experiment: Cell viability assay (CellTiter-Glo); format: cell-based; conditions: Homo sapiens, GISTT1; 72 h; concentration causing half-maximal growth inhibition
Description: (§4) GIST-T1 (Cosmobio, Tokyo, Japan, # PMC-GIST01C-COS) cells were cultured in DMEM (Welgene, # LM001-05) and HMC1.2 (Merck, Darmstadt, Germany, # SCC062) cells were cultured in IMDM (Welgene, # LM004-01). Parental Ba/F3 (DSMZ, Braunschweig, Germany, # ACC300) cells were cultured in RPMI (Welgene, # LM011-51) with 10 ng IL-3/mL (Enzo, # ALX-201-821). The culture media was supplemented with 10% fetal bovine serum and 1% penicillin/streptomycin solution. The cells were maintained in a humidified atmosphere containing 5% CO2 at 37 °C.
(§5) Cells (GIST-T1: 5.0 × 10^3; HMC1.2: 1 × 10^4) were seeded in 96-well plates. Each compound was treated in each well at 10 dose points of 3-fold serial dilution. After treatment with each compound for 72 h, CellTiter-Glo solution (Promega, # G7572) was added to each well. Anti-proliferation activity was measured the luminescence using a 96-well plate reader (EnVision 2013).

[8] = system: c-KIT auto-phosphorylation in HMC1.2 cells; experiment: Western blot of c-KIT signaling; format: cell-based, human; conditions: 10 μM
Description: as §3

[9] = system: phosphorylated c-KIT (Tyr703) and downstream signaling in GIST-T1 cells; experiment: Western blot of c-KIT signaling; format: cell-based, human
Description: as §3

HMC1.2 cells [10] = experiment: Cell viability assay (CellTiter-Glo); format: cell-based, human; conditions: Homo sapiens, 72 h
Description: as §4, §5

GIST-T1 cells [11] = experiment: Cell cycle arrest analysis (PI flow cytometry); format: cell-based, human; conditions: GIST-T1, 0.01 μM
Description: as §1

HMC1.2 cells [12] = experiment: Cell cycle arrest analysis (PI flow cytometry); format: cell-based, human; conditions: HMC1.2, 0.5 μM, 24 h
Description: as §1

c-KIT D816V Ba/F3 cells [13] = experiment: Anti-proliferative activity on Ba/F3 cells; format: cell-based; conditions: Mus musculus, BaF3
parental Ba/F3 cells = experiment: Anti-proliferative activity on Ba/F3 cells; format: cell-based; conditions: Mus musculus, BaF3
Description: as §4, §5

GIST-T1 cells [14] = experiment: Migration (wound healing) assay; format: cell-based, human; conditions: GIST-T1, 0.005 μM and 0.05 μM, 36 h
Description: GIST-T1 cells were seeded in 6-well plates at 2 × 10^6 cells. Next day, cells were washed with PBS and wounded in the center of each well. Then, GIST-T1 cells were washed with PBS and added to fresh DMEM.

GIST = system: GIST; design: method as in PMID 32601076; conditions: fourth-line treatment; cited from earlier work
GIST-T1 cells [15] = experiment: Soft agar assay (anchorage-independent growth); format: cell-based, human; conditions: GIST-T1, two different concentrations, 3 weeks
Description: Anchorage-independent growth was assessed by determining colony formation on soft agar. GIST-T1 cells in DMEM media containing 0.7% agar were plated at 5,000 cells per well. Cells were treated with each compound for 3 weeks, and the media were changed every 3 days. Colonies were stained using iodonitrotetrazolium chloride (Sigma Aldrich). The average number colonies were counted using ImageJ software (version 1.53e, National Institutes of Health, Bethesda, MD, USA)

Compound	G0/G1 arrest compared with imatinib (c-KIT D816V Ba/F3 cells [1])	invasion capability (GIST-T1 cells [2])	production of apoptotic cells (c-KIT D816V Ba/F3 cells [3])	IC50 (c-KIT) [nM]	c-KIT auto-phosphorylation [4]	production of apoptotic cells (GIST-T1 cells [5])	production of apoptotic cells (HMC1.2 cells [6])	IC50 (c-KIT V560G/D816V) [nM]	fold higher enzymatic inhibitory activity against c-KIT V560G/D816V compared with imatinib (c-KIT V560G/D816V)	GI50 (GIST-T1 cells [7]) [nM]	c-KIT auto-phosphorylation [8]	levels of phosphorylated c-KIT (Tyr703) and downstream mediators p-AKT, p-ERK, p-PLCγ, p-STAT3 [9]	GI50 (HMC1.2 cells [10]) [nM]	G0/G1 arrest induced compared to control (GIST-T1 cells [11])	G0/G1 arrest compared with imatinib (HMC1.2 cells [12])	GI50 (c-KIT D816V Ba/F3 cells [13]) [nM]	GI50 (parental Ba/F3 cells) [nM]	cell migration decreased compared to control (GIST-T1 cells [14])	overall response rate (GIST) [%]	anchorage-independent growth (GIST-T1 cells [15])
Cc1ccc(NC(=O)c2ccc(CN3CCNCC3)c(C(F)(F)F)c2)cc1-c1cnc2sc(N)nc2c1 [6s]	more strongly	significantly suppressing	remarkably induced	370	completely inhibited	remarkably induced	remarkably induced	7670 ± 2640	4.9- to 8.0 fold	20	completely inhibited	remarkably inhibited	1330 ± 430	25–35%	more strongly	1060 ± 150	10500 ± 3590	50–70%		
CC(=O)Nc1nc2cc(-c3cc(NC(=O)c4ccc(CN5CCN(C)CC5)c(C(F)(F)F)c4)ccc3C)cnc2s1 [7c]	more strongly	significantly suppressing	remarkably induced	100	completely inhibited	remarkably induced	remarkably induced	5070 ± 710	4.9- to 8.0 fold	10	completely inhibited	remarkably inhibited	1520 ± 430	25–35%	more strongly	530 ± 60	10500 ± 3440	50–70%		
CCn1c(=O)c(-c2cc(NC(=O)Nc3ccccc3)c(F)cc2Br)cc2cnc(NC)cc21 [Ripretinib]																			9.4	
Cc1ccc(NC(=O)c2ccc(CN3CCN(C)CC3)cc2)cc1Nc1nccc(-c2cccnc2)n1 [imatinib, reference compound]							did not induce apoptosis					remarkably inhibited	27100 ± 3360	25–35%		12200 ± 2060	17000 ± 200			dramatic inhibition
